Measured values: US20050038113A1, “Valproic acid and derivatives for the combinatorial therapeutic treatment of human cancers and for the treatment of tumor metastasis and minimal residual disease” (G2M Cancer Drugs AG, priority 2001, published 2005)

Columns and labels:
[1] = test system: HCT-15 colon cancer cells; test: SRB-assay, reduction in total cellular biomass; format: cell-based, human
Procedure: (§1) The reduction in cellular biomass was measured by SRB-assay. For this assay cells were seeded in 96 well culture dishes at densities between 3000 and 8000 cells per well. […] Cultures were fixed with cold TCA producing a final TCA concentration of 10%. After 1 hour of incubation at 4° C. the cells were washed five times with water and air dried. Fixed cells were stained for 30 minutes with 0,4% (wt/vol) Sulforhodamine B (SRB) dissolved in 1% acetic acid and washed four times with 1% acetic acid to remove unbound dye. After air drying bound dye was solubilized with 10 mM unbuffered Tris base (pH 10,5) for 5 minutes. Optical densities were read on a Titertek Multiskan Plus spectrophotometric plate reader at 550 nm. Six test wells for each dose-response were set in parallel with 12 growth control wells per cell line. A measure of the cell population density at time 0 (To; the time at which the drug was added) was also made from 12 extra reference wells of cells fixed with TCA just prior to drug addition to the test plates. Background OD of complete medium with 5% FBS fixed and stained as described above was also determined in 12 separate wells. From the unprocessed OD data from each microtiter plate the background OD measurements (i.e. OD of complete medium plus stain and OD of cells at T0) were subtracted thus giving the reduction of cellular biomass of the cells.
This was in particular obvious when lower concentrations of 5-FU were used. E.g. […] Thus, this combinatorial activity of these two drugs must be explained via a synergistic activity of this treatment.

[2] = test system: A-549 non-small cell lung cancer cells; test: SRB-assay, reduction in total cellular biomass; format: cell-based, human; conditions: 0.75 mM VPA in combination with Gemcitabine, 48 hours, compared to either alone
Procedure: as §1

[3] = test system: COLO320DM colon cancer cells; test: SRB-assay, reduction in total cellular biomass; format: cell-based, human; conditions: 0.75 mM VPA in combination with Camptothecin, 48 hours
Procedure: as §1

Renca-lacZ cells = test: in vivo mouse model of renal carcinoma lung metastasis (X-Gal staining); parameters: species or system Balb/c mice; conditions: 2×400 mg/kg/day i.p. Na-VPA; Renca-lacZ cells into tail vein; vs glucose solution
Text: Mouse renal carcinoma cells (Renca) were established from a spontaneously arising kidney tumor in Balb/c mice. These cells efficiently form tumors in the lung upon transplantation into Balb/c mice through the tail vein and the tumorigenic properties of Renca cells have been well established (Murphy, et al., 1973, J. Natl. Cancer Inst., 50: 1013-1025; Hrushesky et al., 1973, J. Surg. Res., 15: 327-332; Williams et al., 1981, Res. Comm. Chem. Pathol. Pharmacol., 34: 345-349). The circulating tumor cells in this model setting represent a mimicry of situations frequently found in tumor patients when residual tumor cells are circulating in a patient's body and finally invade and home in various organs to grow as metastatic tumors. The inhibition of such minimal residual tumor diseases is one of the major aims of modern tumor therapy and can be experimentally examined in the in vivo model used here. Renca cells and the transfected cell clone Renca-lacZ (encoding for β-galactosidase) were grown in RPMI-1640 supplemented with 10% fetal calf serum (FCS). For metastasis formation in recipient mice […] Renca-lacZ cells in 100 μl PBS were injected into the lateral tail vein of female Balb/c mice at 4 to 6 weeks of age. […] Metastatic surface nodules were analyzed under a dissecting microscope and representative pictures were taken and are presented in FIG. 9.

[4] = test system: HCT-116 colon cancer cells; test: cell counts and propidium iodide cell cycle/apoptosis analysis; format: cell-based, human
Procedure: For FIG. 14 cells were seeded in 6 well culture dishes at 100000 cells/well. The day after, they were treated with the indicated drugs (5-FU: 2 μM 5-Fluoruracile; AD: 20 ng/ml adriamycin; IT: 3 μM irinothecan), and then cultured for further 48 hours. Cells were counted at 24 h and 48 h after treatment. All of the assays have been performed in triplicate.
For FIG. 15 cells were seeded in 6 well culture dishes at 100000 cells/well. […] (A), results of triplicate counts of viable cells. (B), cells were stained with propidium iodide after permeabilization and fixation. Results of a cell cycle analysis are presented as percentage (%) of cells in G1, S, G2+M, and sub-G1 (apoptotic cells): all of the assays have been performed in triplicate.
(A), results of triplicate counts of viable cells. (B), cells were stained with propidium iodide after permeabilization and fixation. Results of a cell cycle analysis are presented as percentage (%) of apoptotic cells: all of the assays have been performed in triplicate.
For FIG. 17 cells were seeded in 10 cm culture dishes (1 million cells/dish). […] The day after, they were treated with the following drugs: 5-FU (panel A), AD (B), or IT (C), at the concentrations as indicated for FIG. 14. Cells were analyzed at the day of treatment, 24 h, and 48 h following treatment. Upper panels, results of triplicate counts of viable cells. Lower panels, cells were stained with propidium iodide after permeabilization and fixation. Results of a cell cycle analysis are presented as percentage (%) of apoptotic cells: all of the assays have been performed in triplicate.

[5] = test system: primary AML blasts from AML patients; test: ex vivo differentiation, viability and apoptosis of leukemic blasts; format: cell-based, human; conditions: for myeloid differentiation: M0, M2 and M4 FAB subtypes
Procedure: Each point represents the mean of a set of data determined in triplicate (Example 15). VPA may cause synergistic therapeutic responses.
Cases were classified according to the French-American-British (FAB) classification (Bennett et al., Ann Intern Med 103, 1985). Cytogenetic analysis and RT-PCR tests were performed to rule out the presence of the APL associated fusion genes according to standard methods as described (Mandelli et al., Blood 90, 1997; Mancini et al., Br J Haematol. 91, 1995; Grimwade et al., Blood 90, 1999).

histone deacetylases = conditions: cited from earlier work

With CCCC(CCC)C(=O)O [VPA, 2-propylpentanoic acid] the “reduction in cellular biomass” value ([1]; 0.75 mM VPA in combination with 5-FU, 48 hours, compared to VPA or 5-FU alone) was “synergistic reduction in cellular biomass”, the “decrease in cellular biomass” value ([1]; 5-FU lower than 0.5 μM in combination with 0.75 mM VPA, compared to 0.75 mM VPA alone) was “stronger decrease in cellular biomass” and the “reduction in cellular biomass” value [2] was “clear additive reduction in cellular biomass”. For the same molecule, the “reduction in cellular biomass” value [3] was “clear reduction in cellular biomass”, the “formation of lung metastasis (number and size of metastatic nodules)” value (Renca-lacZ cells) was “effectively inhibited the formation of lung metastasis” and the cell growth ([4]; 5-FU 2 μM in combination with VPA 1 mM, 72 hours) was “strong synergistic reduction in cell growth”. For the same molecule, the apoptosis ([4]; 5-FU 2 μM in combination with VPA 1 mM, 72 hours, vs 5-FU alone) was “much higher levels of apoptosis”, the apoptosis ([4]; VPA 1 mM pre-treatment three days, then VPA+AD (20 ng/ml) up to 48 hours) was “dramatic synergistic enhancement of apoptosis” and the apoptosis ([4]; VPA 1 mM pre-treatment three days, then VPA+FU (2 μM) up to 48 hours) was “dramatic synergistic enhancement of apoptosis”. For the same molecule, the apoptosis ([4]; VPA 1 mM pre-treatment three days, then VPA+IT (3 μM) up to 48 hours) was “dramatic synergistic enhancement of apoptosis”, the apoptosis ([4]; VPA alone, up to one week) was “did not induce apoptosis” and the cell number ([4]; VPA alone, up to one week) was “only minimally affected cell number”. For the same molecule, the myeloid differentiation ([5]; VPA as a single agent) was “partial myeloid differentiation”, the “positive cells in the NBT dye reduction assay” value ([5]; VPA in combination with RA) was “up to 65%” and the “myeloid differentiation of blasts from primary or relapsed AMLs” value ([5]; VPA in combination with RA, 3 and 2 cases studied) was “induced myeloid differentiation”. For the same molecule, the myeloid differentiation ([5]; VPA in combination with RA) was “complete and thus synergistic myeloid differentiation”, the induction of apoptosis ([5]; combination of VPA plus RA compared to VPA or RA alone) was “strongly enhanced, often in a synergistic fashion” and the “apoptosis of AML blasts (FACS, propidium-iodide)” value ([5]; single agent, 4 cases tested) was “effective in inducing apoptosis”. The histone deacetylase inhibition (histone deacetylases) was “acts as an inhibitor of histone deacetylases”.
